From patent US20240270821A1, “GIP/GLP1/GCG TRI-RECEPTOR AGONISTS AND USES THEREOF” (priority 2023, published 2024)
Like-named read-outs stand apart in the source and are kept apart here. Starred links: 1 amine or outer side, 2 acyl side, 3 side chain; linkers in the order of their positions; H or OH if unused. Non-standard residues stand in square brackets, D forms with d. Residues, ends and D or L forms follow the SMILES beside them. Groups on a side chain read outwards from the residue. No end group written: not given here. *: point of attachment. C20 diacid = O=C(O)CCCCCCCCCCCCCCCCCCC(=O)*; C18 diacid = O=C(O)CCCCCCCCCCCCCCCCC(=O)*; αMePhe(2-F) = C[C@](N)(Cc1ccccc1F)C(=O)O; γGlu = O=C(O)[C@H](CCC(=O)[*:2])N[*:1]; αMe4Pal = C[C@](N)(Cc1ccncc1)C(=O)O; αMeY = C[C@](N)(Cc1ccc(O)cc1)C(=O)O; 4Pal = N[C@@H](Cc1ccncc1)C(=O)O; αMeL = CC(C)C[C@](C)(N)C(=O)O; αMeS = C[C@](N)(CO)C(=O)O; Orn = NCCC[C@H](N)C(=O)O; AEEA = NCCOCCOCC(=O)O; Aib = CC(C)(N)C(=O)O

Legend:
Format in all cases: cell-based
human GcgR = human GcgR (Homo sapiens, UniProt P47871); assay: Functional cAMP activity in the presence of 1% HSA; settings: read-out: cAMP Rel EC50, hGcgR
Chain of human GcgR (P47871 26-477): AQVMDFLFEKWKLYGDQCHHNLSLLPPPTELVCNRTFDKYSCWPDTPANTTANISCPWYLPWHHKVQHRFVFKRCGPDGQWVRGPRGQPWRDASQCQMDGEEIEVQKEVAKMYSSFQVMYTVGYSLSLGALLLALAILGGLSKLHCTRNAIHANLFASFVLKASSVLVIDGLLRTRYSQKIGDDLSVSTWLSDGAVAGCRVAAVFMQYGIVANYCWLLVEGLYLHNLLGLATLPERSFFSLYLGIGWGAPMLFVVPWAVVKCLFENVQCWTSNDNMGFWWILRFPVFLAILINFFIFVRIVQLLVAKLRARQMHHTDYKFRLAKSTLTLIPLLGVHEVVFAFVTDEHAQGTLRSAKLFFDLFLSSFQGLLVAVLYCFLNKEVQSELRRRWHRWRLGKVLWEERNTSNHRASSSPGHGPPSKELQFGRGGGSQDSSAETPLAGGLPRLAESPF

hGcgR = hGcgR (Homo sapiens, UniProt P47871); assay: Functional cAMP activation in the presence of 0.1% casein (no HSA); settings: read-out: Relative cAMP EC50, hGcgR;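 note: intracellular cAMP rise after 30 min at 37 °C, read by HTRF against a cAMP standard curve, scaled from buffer only (0%) to maximal control ligand response (100%)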
Chain of hGcgR (P47871 26-477): as above

hGIPR [1] = biological target: T1, hGIPR (Homo sapiens, UniProt P48546); assay: Functional cAMP activity in the presence of 1% HSA; settings: read-out: cAMP Rel EC50, hGIPR
T1 sequence (P48546 22-466): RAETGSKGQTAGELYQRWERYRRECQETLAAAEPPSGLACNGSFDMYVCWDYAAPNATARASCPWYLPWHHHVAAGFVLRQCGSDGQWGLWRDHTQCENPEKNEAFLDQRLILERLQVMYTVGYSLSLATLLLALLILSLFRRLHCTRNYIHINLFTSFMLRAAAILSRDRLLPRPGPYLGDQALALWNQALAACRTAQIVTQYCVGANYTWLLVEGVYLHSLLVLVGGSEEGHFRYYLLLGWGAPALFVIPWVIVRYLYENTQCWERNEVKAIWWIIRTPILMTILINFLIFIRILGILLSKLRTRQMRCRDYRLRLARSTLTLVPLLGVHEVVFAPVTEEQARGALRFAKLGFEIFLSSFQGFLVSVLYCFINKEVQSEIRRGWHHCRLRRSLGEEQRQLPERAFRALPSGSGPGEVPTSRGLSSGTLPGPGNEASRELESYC

hGIPR [2] = biological target: T1, hGIPR; assay: Functional cAMP activation in the presence of 0.1% casein (no HSA); settings: read-out: Relative cAMP EC50, hGIPR;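 for Relative cAMP EC50, hGIPR: intracellular cAMP rise after 30 min at 37 °C read by HTRF against a standard curve, scaled between buffer alone (0%) and top control ligand concentration (100%), four-parameter fit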;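 for Relative cAMP EC50, hGLP-1R: intracellular cAMP rise after 30 min at 37 °C read by HTRF, normalized between buffer only (0%) and maximal control ligand (100%), four-parameter variable-slope fit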
hGLP-1R [3] = biological target: T2, hGLP-1R (Homo sapiens, UniProt P43220); assay: as above; settings: read-out: Relative cAMP EC50, hGLP-1R;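 note: intracellular cAMP rise after 30 min at 37 °C read by HTRF, normalized between buffer only (0%) and maximal control ligand (100%), four-parameter variable-slope fit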
T2 sequence (P43220 24-463): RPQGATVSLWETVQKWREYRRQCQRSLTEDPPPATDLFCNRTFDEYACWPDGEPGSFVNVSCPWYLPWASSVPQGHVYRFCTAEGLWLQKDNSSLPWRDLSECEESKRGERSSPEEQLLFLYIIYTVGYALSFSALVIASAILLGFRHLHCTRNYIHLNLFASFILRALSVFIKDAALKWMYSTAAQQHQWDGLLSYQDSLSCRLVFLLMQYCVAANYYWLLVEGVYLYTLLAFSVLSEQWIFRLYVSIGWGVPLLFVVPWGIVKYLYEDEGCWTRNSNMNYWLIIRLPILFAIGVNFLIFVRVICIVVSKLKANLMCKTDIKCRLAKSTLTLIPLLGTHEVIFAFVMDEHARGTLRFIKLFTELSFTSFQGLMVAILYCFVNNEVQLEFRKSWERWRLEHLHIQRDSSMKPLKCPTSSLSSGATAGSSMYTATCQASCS

hGLP-1R [4] = biological target: T2, hGLP-1R; assay: Functional cAMP activity in the presence of 1% HSA; settings: read-out: cAMP Rel EC50, hGLP-1R
[5] = in the presence of 0.1% casein (no HSA), geometric mean
[6] = 0.1% casein, no HSA, geometric mean

Compound | EC50 (human GcgR) [nM] | EC50 (hGcgR; [5]) [nM] | EC50 (hGIPR [1]) [nM] | EC50 (hGIPR [2]; [5]) [nM] | EC50 (hGLP-1R [3]; [5]) [nM] | EC50 (hGLP-1R [4]) [nM] | EC50 (hGcgR; [6]) [nM] | EC50 (hGIPR [2]; [6]) [nM] | EC50 (hGLP-1R [3]; [6]) [nM] | EC50 (hGcgR) [nM] | EC50 (hGIPR [2]) [nM] | EC50 (hGLP-1R [3]) [nM]
H-Y[Aib]QGT[αMePhe(2-F)]TSD[4Pal][αMeS]I[αMeL]LD[Orn]K([AEEA-γGlu-C18 diacid])AQ[αMe4Pal]EFI[dE][αMeY]LIEGGPSSGAPPPSGE-NH2 [Example 1140] | 228 | 1.56 | 0.869 | 0.00821 | 0.323 | 39.2 |  |  |  |  |  | 
H-Y[Aib]QGT[αMePhe(2-F)]TSD[4Pal][αMeS]I[αMeL]LD[Orn]K([γGlu-γGlu-C18 diacid])AQ[αMe4Pal]EFI[dE][αMeY]LIEGGPPS[Aib][Orn]PPP[Orn]GE-NH2 [Example 1227] | 199 |  | 0.527 |  |  | 39.5 | 1.99 | 0.00621 | 0.387 |  |  | 
H-Y[Aib]QGTFTSDFSK[αMeL]LDKK([AEEA-γGlu-C20 diacid])AQ[Aib]AFIEYLLEGGPSSGAPPP[γGlu]GE-NH2 [Example 53] | 1780 | 4.19 | 113 | 0.518 | 3.31 | 1030 |  |  |  |  |  | 
H-Y[Aib]QGTFTSD[4Pal]SQ[αMeL]LD[Orn]K([AEEA-γGlu-C18 diacid])AQ[αMe4Pal]AFIE[αMeY]LIE[Aib]GPSSGEPPPSGSEE-NH2 [Example 1097] | 752 | 6.16 | 27.3 | 0.136 | 1.59 | 141 |  |  |  |  |  | 
H-Y[Aib]QGT[αMePhe(2-F)]TSD[4Pal]SILLDKK([γGlu-γGlu-C18 diacid])AQ[Aib]AFIE[αMeY]LEEGGPSSGAPPPSGGGE-NH2 [Example 668] | 203 |  | 1.69 |  |  | 27.1 |  |  |  | 2.03 | 0.0198 | 0.325
Y[Aib]QGTFTSD[4Pal]SQ[αMeL]LD[Orn]K([dE-γGlu-C18 diacid])AQ[αMe4Pal]QFIE[αMeY]LIA[Aib]GPSSGEPPPSGSEE-NH2 [Example 1106] | 1030 | 7.71 | 4.23 | 0.0312 | 0.87 | 119 |  |  |  |  |  | 
H-Y[Aib]QGTFTSD[4Pal]SQ[αMeL]LD[Orn]K([γGlu-γGlu-C18 diacid])AQ[αMe4Pal]AFIE[αMeY]LIA[Aib]GPSSGAPPPSGSEE-NH2 [Example 1107] | 864 | 5.66 | 5.29 | 0.0447 | 0.51 | 59 |  |  |  |  |  | 
CC[C@H](C)[C@H](NC(=O)[C@H](Cc1ccccc1)NC(=O)[C@H](C)NC(=O)C(C)(C)NC(=O)[C@H](CCC(N)=O)NC(=O)[C@H](C)NC(=O)[C@H](CCCCNC(=O)COCCOCCNC(=O)CC[C@H](NC(=O)CCCCCCCCCCCCCCCCC(=O)O)C(=O)O)NC(=O)[C@H](CCCN)NC(=O)[C@H](CC(=O)O)NC(=O)[C@H](CC(C)C)NC(=O)[C@](C)(CC(C)C)NC(=O)[C@@H](NC(=O)[C@H](CO)NC(=O)[C@H](Cc1ccncc1)NC(=O)[C@H](CC(=O)O)NC(=O)[C@H](CO)NC(=O)[C@@H](NC(=O)[C@](C)(Cc1ccccc1F)NC(=O)[C@@H](NC(=O)CNC(=O)[C@H](CCC(N)=O)NC(=O)C(C)(C)NC(=O)[C@@H](N)Cc1ccc(O)cc1)[C@@H](C)O)[C@@H](C)O)[C@@H](C)CC)C(=O)N[C@@H](CCC(=O)O)C(=O)N[C@@H](Cc1ccc(O)cc1)C(=O)N[C@@H](CC(C)C)C(=O)N[C@@H](CCC(=O)O)C(=O)N[C@@H](CCC(=O)O)C(=O)NCC(=O)NCC(=O)N1CCC[C@H]1C(=O)N[C@@H](CO)C(=O)N[C@@H](CO)C(=O)NCC(=O)N[C@@H](CCC(=O)O)C(=O)N1CCC[C@H]1C(=O)N1CCC[C@H]1C(=O)N1CCC[C@H]1C(=O)N[C@@H](CO)C(N)=O [Example 486] (H-Y[Aib]QGT[αMePhe(2-F)]TSD[4Pal]SI[αMeL]LD[Orn]K([AEEA-γGlu-C18 diacid])AQ[Aib]AFIEYLEEGGPSSGEPPPS-NH2) | 647 |  | 2.57 |  |  | 35 |  |  |  | 4.43 | 0.0262 | 0.375
Y[Aib]QGTFTSD[4Pal]SQ[αMeL]LDKK([Glu-γGlu-C18 diacid])AQ[αMe4Pal]AFIEYLIAGGPSSGAPPPSGE-NH2 [Example 1086] | 3140 | 12 | 21.2 | 0.117 | 1.23 | 496 |  |  |  |  |  | 
